{"source": "patent US20180290979A1", "about": "“COMPOSITION HAVING COMPOUND ACCELERATING PHOSPHORYLATION OF AMPK AS EFFECTIVE COMPONENT” (Kyoto University, priority 2015, published 2018)", "key": {"NIH/3T3 cells [1]": {"tested_on": "NIH/3T3 cells", "assay": "Inhibition of cell death caused by serum starvation, WST-8 assay", "format": "cell-based, mouse", "details": "serum-free", "description": "NIH/3T3 cells were cultured under serum-containing or serum-free conditions, and after a predetermined period of time, a WST-8 assay was performed to confirm the cell number (N=6).\nFIG. 2 is a graph comparing the viable cell numbers in the serum-starved condition in the presence and absence of Compound 1."}, "HeLa cells [2]": {"tested_on": "HeLa cells", "assay": "Effect of autophagy inhibitor 3-MA on cell death induced by Compound 1, WST-8 assay", "format": "cell-based, human", "description": "3-Methyladenine (3-MA) is a class III PI3K inhibitor and is also an autophagy inhibitor. 3-MA was added to HeLa cells for one hour, and three days later, a WST-8 assay was performed to confirm the number of the cells.\nThus, it was confirmed that cell death induced by Compound 1 in cancer cells was autophagic."}, "AMPKα": {"tested_on": "AMPKα", "assay": "Enhancement of phosphorylation of AMPK, Western blotting in NIH/3T3 cells", "format": "cell-based, mouse", "description": "(§1) Compound 1 was added to mouse fibroblast NIH/3T3 cells under serum-free conditions, the cells were harvested over a period of time to prepare a disrupted cell suspension, and phosphorylated AMPKα, total AMPKα, phosphorylated ACC, and total ACC were detected by Western blotting. ACC denotes acetyl-CoA carboxylase."}, "[3]": {"tested_on": "ACC (acetyl-CoA carboxylase)", "assay": "Enhancement of phosphorylation of ACC, Western blotting in NIH/3T3 cells", "format": "cell-based, mouse", "description": "as §1"}, "NIH/3T3 cells [4]": {"tested_on": "NIH/3T3 cells", "assay": "Inhibition of cell death after storage at 4° C. and rewarming to 37° C.", "format": "cell-based, mouse", "details": "cells stored at 4° C. for 24 hours and then rewarmed to 37° C."}, "mouse fibroblast MEF": {"tested_on": "mouse fibroblast MEF", "assay": "Inhibition of TNF-α induced apoptosis", "format": "cell-based"}, "[5]": {"tested_on": "Mouse spinal cord macrophages", "assay": "Inhibition of cell death in primary culture, WST-8 assay", "format": "cell-based", "details": "serum-containing or serum-free", "description": "Mouse spinal cord macrophages were cultured under serum-containing or serum-free conditions, and after a predetermined period of time, a WST-8 assay was performed to confirm the cell number (N=6)."}, "[6]": {"tested_on": "liver warm ischemia reperfusion injury", "assay": "Rat liver warm ischemia reperfusion injury model", "format": "in vivo", "details": "LEW rats, 0.3 mg/kg before ischemia", "description": "An experiment was performed with a rat liver warm ischemia reperfusion model, in which LEW rats of eight to nine weeks of age were subjected to laparotomy under general anesthesia by endotracheal intubation, and after 20 minutes of warm ischemia applied by blocking the hepatic portal region, the blocking was released and reperfusion was carried out. With respect to positive subjects, using AICAR (aminoimidazole-4-carboxamide rebonucleoside), which is an AMPK activator, a solvent, Compound 1 (0.3 mg/kg), and AICAR (100 mg/kg) were administered, respectively, before ischemia, and aspartate aminotransferase (AST) and alanine aminotransferase (ALT), which are liver deviation enzymes, in peripheral blood were measured six hours after the reperfusion (N=3)."}, "HeLa cells [7]": {"tested_on": "HeLa cells", "assay": "Induction of cell death in cancer cells, WST-8 assay", "format": "cell-based", "details": "human cervical cancer"}, "Jurkat cells": {"tested_on": "Jurkat cells", "assay": "Induction of cell death in cancer cells, WST-8 assay", "format": "cell-based", "details": "human T-cell leukemia"}, "SH-SY5Y cells": {"tested_on": "SH-SY5Y cells", "assay": "Induction of cell death in cancer cells", "format": "cell-based", "details": "human neuroblast"}, "LC3-II": {"tested_on": "LC3-II", "assay": "Autophagy marker LC3-II in cancer cells, Western blotting", "format": "cell-based, human", "details": "HeLa cells, in the presence of 4 mM of BafA, cultured for 21 hours", "description": "Bafilomycin A1 (BafA) is an autophagy inhibitor. BafA was added to HeLa cells for one hour and then Compound 1 was added thereto. After this was cultured for 21 hours, the cells were harvested to prepare a disrupted cell suspension, and the amount of LC3-II was confirmed by Western blotting. LC3-II is an autophagy marker."}, "[8]": {"details": "16 hours after the addition (data not shown)"}, "[9]": {"details": "NIH/3T3 cells, serum-free, within 10 minutes after the addition"}}}
{"smiles": "Cc1ccc(S(=O)(=O)Nc2cc(C(F)(F)F)ccc2N2CC[C@@H]3CCCC[C@H]3C2)cc1", "note": "[Compound 3, N-(2-((4aS,8aR)-octahydroisoquinolin-2(1H)-yl)-5-(trifluoromethyl)phenyl)-4-toluenesulfonamide]", "values": [{"measurement": "cell death caused by serum starvation (viable cell number)", "setting": "NIH/3T3 cells [1]", "value": "cell death inhibitory effect equivalent to that of Compound 1"}]}
{"smiles": "O=S(=O)(Nc1cc(C(F)(F)F)ccc1N1CC[C@@H]2CCCC[C@H]2C1)c1ccccc1", "note": "[Compound 2, N-(2-((4aS,8aR)-octahydroisoquinolin-2(1H)-yl)-5-(trifluoromethyl)phenyl)benzenesulfonamide]", "values": [{"measurement": "cell death caused by serum starvation (viable cell number)", "setting": "NIH/3T3 cells [1]", "value": "cell death inhibitory effect equivalent to that of Compound 1"}]}
{"smiles": "O=S(=O)(Nc1cc(C(F)(F)F)ccc1N1CC[C@@H]2CCCC[C@H]2C1)c1ccc2ccccc2c1", "note": "[Compound 6, N-(2-((4aS,8aR)-octahydroisoquinolin-2(1H)-yl)-5-(trifluoromethyl)phenyl)-2-naphthalenesulfonamide]", "values": [{"measurement": "cell death caused by serum starvation (viable cell number)", "setting": "NIH/3T3 cells [1]", "value": "cell death inhibitory effect equivalent to that of Compound 1"}]}
{"smiles": "O=S(=O)(Nc1cc(C(F)(F)F)ccc1N1CC[C@@H]2CCCC[C@H]2C1)c1ccc(Br)cc1", "note": "[Compound 4, 4-bromo-N-(2-((4aS,8aR)-octahydroisoquinolin-2(1H)-yl)-5-(trifluoromethyl)phenyl)benzenesulfonamide]", "values": [{"measurement": "cell death caused by serum starvation (viable cell number)", "setting": "NIH/3T3 cells [1]", "value": "cell death inhibitory effect equivalent to that of Compound 1"}]}
{"smiles": "Cn1cnc(N)c2ncnc1-2", "note": "[Compound 3-MA, 3-Methyladenine, reference compound]", "values": [{"measurement": "survival rate of the cells", "setting": "HeLa cells [2]; HeLa cells with cell death induced by Compound 1, depending on the amount of 3-MA added", "value": "improved"}]}
{"smiles": "O=S(=O)(Nc1cc(C(F)(F)F)ccc1N1CC[C@@H]2CCCC[C@H]2C1)c1ccc(F)cc1", "note": "[Compound 1, 4-fluoro-N-(2-((4aS,8aR)-octahydroisoquinolin-2(1H)-yl)-5-(trifluoromethyl)phenyl)benzenesulfonamide]", "values": [{"measurement": "phosphorylation of AMPK", "setting": "AMPKα; [8]", "value": "maintained"}, {"measurement": "phosphorylation of AMPK", "setting": "AMPKα; [9]", "value": "enhanced"}, {"measurement": "phosphorylation of ACC", "setting": "[3]; [8]", "value": "maintained"}, {"measurement": "phosphorylation of ACC", "setting": "[3]; [9]", "value": "enhanced"}, {"measurement": "cell death caused by serum starvation (viable cell number)", "setting": "NIH/3T3 cells [1]", "value": "significantly inhibited cell death"}, {"measurement": "cell death after cold storage and rewarming", "setting": "NIH/3T3 cells [4]", "value": "cell death inhibitory effect was observed"}, {"measurement": "TNF-α induced apoptosis (proinflammatory cell death)", "setting": "mouse fibroblast MEF", "value": "cell death inhibitory effect was observed"}, {"measurement": "cell death in primary culture (viable cell number)", "setting": "[5]", "value": "significantly inhibited cell death"}, {"measurement": "hepatic injury", "setting": "[6]", "value": "alleviate hepatic injury"}, {"measurement": "elevation of liver deviation enzymes (AST, ALT) in peripheral blood", "setting": "[6]; 20 minutes warm ischemia, six hours after the reperfusion", "value": "inhibited the elevation of liver deviation enzymes"}, {"measurement": "cell death in cancer cells", "setting": "HeLa cells [7]", "value": "able to induce cell death"}, {"measurement": "cell death in cancer cells", "setting": "Jurkat cells", "value": "able to induce cell death"}, {"measurement": "cell death in cancer cells", "setting": "SH-SY5Y cells", "value": "able to induce cell death"}, {"measurement": "amount of LC3-II", "setting": "LC3-II", "value": "considerably increased"}, {"measurement": "type of cell death induced in cancer cells", "setting": "HeLa cells [2]; HeLa cells, with 3-MA, three days", "value": "autophagic"}]}
